This note sets out measurements from PubChem BioAssay (NCI).

Some test systems named below: KM12 colon; MDA-MB-435; SN12C renal; UACC-62 melanoma; LOX IMVI melanoma; TK-10 renal; SK-MEL-5 melanoma; A549 NSCLC; OVCAR-3 ovarian; PC-3 prostate.
Assay in all cases: NCI-60 cell line screen, 48 h

SMILES strings stand for the structures.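 The compound was tested at five concentrations on cells cultured in 96-well plates, with a 48-hour exposure period. At the GI50, growth is halved. TGI is the concentration that stops growth completely.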

As for `C=CC(C=O)C1(O)CCOC(=O)/C1=C\N` (stereo not given), the GI50 in the test on KM12 colon, in the test on MDA-MB-435, with SN12C renal, in the test on UACC-62 melanoma, in the test on LOX IMVI melanoma and with TK-10 renal was more than 100 µM in each case. Further, the GI50 was 62.4 µM in the test with SK-MEL-5 melanoma, more than 100 µM in the test with A549 NSCLC, more than 100 µM in the test on OVCAR-3 ovarian and more than 100 µM with PC-3 prostate. Further, the TGI in the test with KM12 colon, in the test on MDA-MB-435, in the test with SN12C renal, with UACC-62 melanoma, with LOX IMVI melanoma and in the test on TK-10 renal was more than 100 µM throughout. Further, the TGI in the test with SK-MEL-5 melanoma, in the test on A549 NSCLC, in the test on OVCAR-3 ovarian and with PC-3 prostate was more than 100 µM in each case.
Regarding `O=c1cc(N2CCNCC2)oc2c(-c3ccccc3)cccc12`, the GI50 in the test on KM12 colon is 43.9 µM; in the test with MDA-MB-435 it was 20.9 µM; in the test with SN12C renal, 45.1 µM; in the test on UACC-62 melanoma, 25.2 µM; in the test with LOX IMVI melanoma it was 31.7 µM; with TK-10 renal, 27.9 µM. Also, the GI50 in the test with SK-MEL-5 melanoma was 14.8 µM; in the test with A549 NSCLC, 23.3 µM; in the test with OVCAR-3 ovarian, 24.6 µM; in the test on PC-3 prostate it was 32 µM. Besides, the TGI in the test with KM12 colon was more than 100 µM; with MDA-MB-435, 98.8 µM; in the test on SN12C renal, more than 100 µM; in the test with UACC-62 melanoma it was more than 100 µM; with LOX IMVI melanoma it was more than 100 µM; in the test on TK-10 renal, more than 100 µM. The TGI with SK-MEL-5 melanoma was 32.5 µM; with A549 NSCLC, 76.2 µM; in the test on OVCAR-3 ovarian it was more than 100 µM; in the test on PC-3 prostate it was more than 100 µM.
On to `c1ccc(-c2cc(C3CO3)c3ccccc3n2)cc1` (stereo not given), for which the TGI came out at 33 µM with KM12 colon; 35.5 µM in the test on MDA-MB-435; 31.3 µM in the test on SN12C renal; 33.7 µM in the test with UACC-62 melanoma; 34.1 µM with LOX IMVI melanoma; 53.4 µM in the test on TK-10 renal. Further, the TGI in the test on SK-MEL-5 melanoma was 31.4 µM; with A549 NSCLC it was 40.4 µM; in the test with OVCAR-3 ovarian it was 33.7 µM; in the test with PC-3 prostate, 41.2 µM.
With `C/C(=C\C1=C(Cl)C(=O)c2ccccc2C1=O)C(=O)O`, the GI50 was 18.1 µM in the test on KM12 colon; 19.4 µM in the test on MDA-MB-435; 24.5 µM in the test with SN12C renal; 17.2 µM with UACC-62 melanoma; 17.6 µM in the test on LOX IMVI melanoma; 23.3 µM in the test with TK-10 renal. The GI50 with SK-MEL-5 melanoma was 17.5 µM; with A549 NSCLC, 21.9 µM; in the test with OVCAR-3 ovarian, 19.4 µM; in the test with PC-3 prostate it was 17.3 µM. Also, the TGI in the test on KM12 colon is 33.7 µM; in the test with MDA-MB-435, 34.8 µM; with SN12C renal, 55.1 µM; in the test with UACC-62 melanoma, 31.5 µM; with LOX IMVI melanoma, 38.6 µM; with TK-10 renal, 38.1 µM. Moreover, the TGI amounted to 31.3 µM in the test on SK-MEL-5 melanoma, 43 µM in the test on A549 NSCLC, 34.2 µM with OVCAR-3 ovarian and 31.1 µM in the test on PC-3 prostate.
On to `COC(=O)c1ccc(NC(=O)Nc2ccc3oc(=O)c4ccccc4c3c2)cc1`, for which the GI50 was more than 100 µM in the test with KM12 colon; 27.9 µM in the test with MDA-MB-435; 44.5 µM in the test with SN12C renal; 82.2 µM in the test on UACC-62 melanoma; 39.2 µM in the test on LOX IMVI melanoma; more than 100 µM with TK-10 renal. Moreover, the GI50 was 5.21 µM with SK-MEL-5 melanoma, more than 100 µM in the test with A549 NSCLC, 29.5 µM in the test with OVCAR-3 ovarian and 36.2 µM with PC-3 prostate. The TGI with KM12 colon is more than 100 µM; with MDA-MB-435, 89.3 µM; in the test with SN12C renal, more than 100 µM; in the test with UACC-62 melanoma, more than 100 µM; in the test on LOX IMVI melanoma, more than 100 µM; with TK-10 renal it was more than 100 µM. The TGI in the test with SK-MEL-5 melanoma was 17.3 µM; in the test on A549 NSCLC it was more than 100 µM; in the test with OVCAR-3 ovarian, 54.6 µM; in the test on PC-3 prostate, more than 100 µM.
As for `Cc1cccc(C(=O)/C=C/SC(=NC#N)SCc2ccccc2)c1`, the GI50 in the test with KM12 colon is 31.6 µM; in the test with MDA-MB-435, 23.1 µM; with SN12C renal, 20.4 µM; in the test on UACC-62 melanoma, 19.4 µM; with LOX IMVI melanoma, 26.9 µM; in the test with TK-10 renal, 13.1 µM. In addition, the GI50 in the test with SK-MEL-5 melanoma was 14.7 µM; in the test on A549 NSCLC it was 23.7 µM; in the test on OVCAR-3 ovarian it was 16.7 µM; with PC-3 prostate it was 16.4 µM. In addition, the TGI with KM12 colon is more than 100 µM; in the test with MDA-MB-435, 72.1 µM; with SN12C renal, 41.3 µM; in the test on UACC-62 melanoma, 40.7 µM; in the test on LOX IMVI melanoma it was more than 100 µM; in the test with TK-10 renal, 32 µM. The TGI with SK-MEL-5 melanoma was found to be 32.9 µM; in the test on A549 NSCLC, 67.7 µM; with OVCAR-3 ovarian, 89.7 µM; with PC-3 prostate, 50.8 µM.
As for `CCN1C(NN)=NS(=O)(=O)c2ccccc21`, the TGI in the test on KM12 colon, in the test on MDA-MB-435, in the test with SN12C renal, with UACC-62 melanoma, with LOX IMVI melanoma and in the test with TK-10 renal was more than 100 µM each time. Moreover, the TGI in the test with SK-MEL-5 melanoma, in the test on A549 NSCLC, with OVCAR-3 ovarian and in the test with PC-3 prostate was more than 100 µM each time.
In the case of `COc1cccc2c1-c1c(c3ccc([N+](=O)[O-])cc3c(=O)n1CCCCl)C2=O`, the GI50 in the test with KM12 colon was more than 50 µM; in the test on MDA-MB-435, more than 50 µM; with SN12C renal it was 15.8 µM; in the test on UACC-62 melanoma, 2.42 µM; in the test on LOX IMVI melanoma, 1.23 µM; in the test on TK-10 renal, 11.8 µM. For the same compound, the GI50 with SK-MEL-5 melanoma was 0.791 µM; in the test on A549 NSCLC, more than 50 µM; in the test with OVCAR-3 ovarian it was more than 50 µM; in the test on PC-3 prostate it was 7.37 µM. Moreover, the TGI was more than 50 µM in the test with KM12 colon; more than 50 µM with MDA-MB-435; more than 50 µM with SN12C renal; 18.8 µM in the test with UACC-62 melanoma; more than 50 µM in the test on LOX IMVI melanoma; 38.9 µM with TK-10 renal. Moreover, the TGI in the test with SK-MEL-5 melanoma, in the test on A549 NSCLC, in the test with OVCAR-3 ovarian and in the test with PC-3 prostate was more than 50 µM throughout.
